This passage reports TGI results from PubChem BioAssay (NCI).

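Cells were grown in 96-well plates and exposed to each compound for 48 hours at five concentrations; endpoints were interpolated linearly between bracketing concentrations, or set to the highest concentration if not reached. TGI: concentration producing complete growth inhibition.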

Test systems include ACHN renal; SF-268 CNS; PC-3 prostate; KM12 colon; SR leukemia; SF-295 CNS; SK-MEL-2 melanoma; MDA-N; MOLT-4 leukemia; M14 melanoma; BT-549 breast; SK-OV-3 ovarian.
Common to all, as to test: DTP human tumour cell line panel, 48 h

As usually defined, the TGI is the concentration at which net growth stops. A low value points to more potent growth arrest. As to `C=CCN(c1cc(OC)c2[nH]cc(C)c2c1[N+](=O)[O-])S(C)(=O)=O`, the TGI with ACHN renal, in the assay on SF-268 CNS, in the assay on PC-3 prostate, in the assay with KM12 colon, with SR leukemia and in the assay on SF-295 CNS was more than 100 µM in each case. Moreover, the TGI in the assay with SK-MEL-2 melanoma, in the assay on MDA-N, in the assay with MOLT-4 leukemia, in the assay with M14 melanoma, in the assay with BT-549 breast and with SK-OV-3 ovarian was more than 100 µM each time.

As to `CCOC(=O)Cn1c(=O)c2cc(-c3ccccc3)cc3c(Cl)nc4c(OC)c(OC)cc1c4c32`, the TGI with ACHN renal was more than 65.5 µM; in the assay on SF-268 CNS it was 29.2 µM; in the assay on PC-3 prostate it was 55.4 µM; with KM12 colon, more than 92.8 µM; in the assay on SR leukemia, more than 100 µM; with SF-295 CNS, more than 100 µM. The TGI with SK-MEL-2 melanoma is 35.4 µM; in the assay with MDA-N, 43.2 µM; in the assay on MOLT-4 leukemia, 14.2 µM; in the assay on M14 melanoma it was 32.9 µM; in the assay with BT-549 breast, 38.3 µM; in the assay with SK-OV-3 ovarian, more than 100 µM.

For `Oc1cccc(-c2cn3cc(C(F)(F)F)ccc3n2)c1`, the TGI with ACHN renal is more than 100 µM; in the assay on SF-268 CNS, more than 100 µM; in the assay on PC-3 prostate it was more than 100 µM; with KM12 colon, more than 100 µM; in the assay on SR leukemia, more than 100 µM; with SF-295 CNS it was 94 µM. Besides, the TGI was more than 100 µM with SK-MEL-2 melanoma; more than 100 µM with MDA-N; 40.1 µM with MOLT-4 leukemia; more than 100 µM in the assay on M14 melanoma; more than 100 µM with BT-549 breast; more than 100 µM in the assay on SK-OV-3 ovarian.

With `C#CCn1c(=O)c(Cl)cn(/C(=C/C(=O)OCC)C(=O)OCC)c1=O`, the TGI in the assay with ACHN renal was 3.93 µM; with SF-268 CNS, 51.1 µM; in the assay with PC-3 prostate, 31.5 µM; in the assay with KM12 colon, more than 70.5 µM; in the assay with SF-295 CNS it was more than 66.7 µM; in the assay on SK-MEL-2 melanoma, 35.6 µM. The TGI with MDA-N is 29.9 µM; in the assay on MOLT-4 leukemia, more than 23.9 µM; in the assay with M14 melanoma, 22.8 µM; in the assay with BT-549 breast it was 35.7 µM; with SK-OV-3 ovarian it was more than 61.6 µM.

In the case of `c1ccc(N=C2SC3=NCCN3C2=Nc2ccccc2)cc1`, the TGI in the assay on PC-3 prostate is 60.6 µM; in the assay with KM12 colon it was 29.7 µM; in the assay with SR leukemia, more than 100 µM; in the assay with SF-295 CNS, 41.7 µM; in the assay with SK-MEL-2 melanoma it was 76.5 µM; in the assay on MDA-N, 41.2 µM. Besides, the TGI was 77 µM in the assay with MOLT-4 leukemia, 37.8 µM with M14 melanoma, 34.7 µM with BT-549 breast and more than 100 µM with SK-OV-3 ovarian.

As to `CCSc1nc(N)c2c(-c3ccccc3)c3c(nc2n1)CCC3`, the TGI in the assay with ACHN renal, in the assay on SF-268 CNS, in the assay with PC-3 prostate, with KM12 colon, with SR leukemia and in the assay with SF-295 CNS was more than 100 µM each time. The TGI in the assay with MDA-N, with MOLT-4 leukemia, in the assay on M14 melanoma, in the assay with BT-549 breast and with SK-OV-3 ovarian was more than 100 µM throughout.

With `CC(C)C1CC[C@H](C)C[C@@H]1OC(=O)C(C(=O)O[C@H]1C[C@@H](C)CCC1C(C)C)C(O)[C@@H]1OC(C)(C)O[C@H]1C1COC(C)(C)O1` (stereo partly drawn), the TGI in the assay with ACHN renal was found to be 32 µM; in the assay with SF-268 CNS, 42.7 µM; in the assay with KM12 colon, 31.6 µM; in the assay with SR leukemia it was 34.9 µM; in the assay on SF-295 CNS it was 32.6 µM; with SK-MEL-2 melanoma, 38.2 µM. Besides, the TGI was 35.4 µM in the assay with MDA-N; 42.8 µM in the assay with MOLT-4 leukemia; 37.8 µM with M14 melanoma; 34.2 µM in the assay on BT-549 breast; 65.4 µM with SK-OV-3 ovarian.

Turning to `CC(=O)/C=C(\O)c1[nH]c(C(=O)O)cc1C1CCN(Cc2ccccc2)C1=O` (stereo not drawn), the TGI in the assay on ACHN renal is more than 100 µM; with SF-268 CNS, 49.5 µM; with PC-3 prostate, more than 100 µM; with KM12 colon, more than 100 µM; with SF-295 CNS it was 48.7 µM; in the assay with SK-MEL-2 melanoma it was 54.9 µM. Also, the TGI came out at 33.8 µM with MDA-N; 53.9 µM in the assay on MOLT-4 leukemia; 29.6 µM in the assay with M14 melanoma; 58.1 µM in the assay with BT-549 breast; 57.7 µM in the assay on SK-OV-3 ovarian.

On to `C(=C\c1cc(-c2ccc3ccccc3n2)nc2ccc3ccccc3c12)/c1ccc2ccccc2n1`, for which the TGI with ACHN renal, in the assay with SF-268 CNS, with PC-3 prostate, in the assay on KM12 colon, in the assay with SR leukemia and with SF-295 CNS was more than 100 µM throughout. Besides, the TGI in the assay with MDA-N, in the assay with MOLT-4 leukemia, in the assay on M14 melanoma, with BT-549 breast and in the assay on SK-OV-3 ovarian was more than 100 µM in each case.

`Cc1ccc(S(=O)(=O)NC(=O)NC(Cc2ccc(O)c(O)c2)C(=O)O)cc1` (stereo not drawn): the TGI was more than 100 µM in the assay on ACHN renal; 2.8 µM in the assay with SF-268 CNS; more than 100 µM in the assay on PC-3 prostate; more than 100 µM in the assay with KM12 colon; more than 100 µM in the assay on SF-295 CNS; more than 100 µM in the assay with SK-MEL-2 melanoma. Besides, the TGI in the assay with MDA-N, in the assay on MOLT-4 leukemia, with M14 melanoma and with BT-549 breast was more than 100 µM in each case.

Regarding `c1ccc(C(CCN2CC3CCC(CC3)C2)c2ccccc2)cc1`, the TGI is 57.8 µM in the assay with ACHN renal; 69.2 µM in the assay with SF-268 CNS; more than 100 µM in the assay with PC-3 prostate; 87.4 µM in the assay on KM12 colon; 46.4 µM in the assay with SR leukemia; 55 µM in the assay with SF-295 CNS. For the same compound, the TGI was 37.8 µM in the assay with SK-MEL-2 melanoma; 58.9 µM in the assay on MDA-N; 42.6 µM in the assay on MOLT-4 leukemia; 27.3 µM in the assay with M14 melanoma; more than 100 µM with BT-549 breast.

In the case of `Clc1c(C(Cl)(Cl)Cl)nsc1N1CCCCC1`, the concentration for total growth inhibition (TGI) in the assay on ACHN renal was more than 100 µM; in the assay on SF-268 CNS, more than 100 µM; with PC-3 prostate, 95.3 µM; with KM12 colon, 55.7 µM; in the assay with SR leukemia, 36.5 µM; in the assay with SF-295 CNS, 66.8 µM. The TGI in the assay with MDA-N was more than 100 µM; in the assay on MOLT-4 leukemia it was 37.3 µM; in the assay on M14 melanoma it was 56.4 µM; with BT-549 breast it was 48.4 µM; with SK-OV-3 ovarian, 78.9 µM.

In the case of `NS(=O)(=O)c1nnc(NS(=O)(=O)c2ccccc2C(=O)O)s1`, the total growth inhibition concentration (TGI) in the assay on ACHN renal, in the assay on SF-268 CNS, with KM12 colon, in the assay on SR leukemia, in the assay with SF-295 CNS and in the assay with SK-MEL-2 melanoma was more than 100 µM each time. The total growth inhibition concentration (TGI) in the assay on MDA-N, in the assay on MOLT-4 leukemia, with M14 melanoma, with BT-549 breast and in the assay on SK-OV-3 ovarian was more than 100 µM each time.

For `C=C(C)[C@@H]1CCC2=C[C@H](CC(C)=CC3=CC(C)=C(O3)[C@@H]1OC)OC2=O`, the TGI in the assay with ACHN renal was more than 100 µM; in the assay on SF-268 CNS, more than 100 µM; in the assay on PC-3 prostate, more than 100 µM; in the assay with KM12 colon, more than 100 µM; in the assay on SR leukemia, more than 100 µM; with SF-295 CNS, 70.5 µM. In addition, the TGI is 52.7 µM in the assay on SK-MEL-2 melanoma; more than 100 µM with MDA-N; more than 100 µM with MOLT-4 leukemia; more than 100 µM in the assay on M14 melanoma; more than 100 µM with BT-549 breast.

For the compound `Cn1c(=O)c2c(nc(Nc3ccc(Cl)cc3)n3c(=O)n(-c4ccccc4)c(=O)n23)n(C)c1=O`, the TGI in the assay with ACHN renal, in the assay with SF-268 CNS, in the assay on PC-3 prostate, in the assay on KM12 colon, in the assay on SR leukemia and in the assay on SF-295 CNS was more than 100 µM in each case. Further, the TGI in the assay on SK-MEL-2 melanoma, in the assay on MDA-N, in the assay on MOLT-4 leukemia, in the assay with M14 melanoma and in the assay with BT-549 breast was more than 100 µM each time.

In the case of `c1ccc2nc(CCC3CCCCN3)ccc2c1` (stereo not drawn), the TGI in the assay on ACHN renal, with SF-268 CNS, in the assay with PC-3 prostate, with KM12 colon, in the assay with SR leukemia and with SF-295 CNS was more than 100 µM throughout. For the same compound, the TGI in the assay on SK-MEL-2 melanoma, with MDA-N, in the assay with M14 melanoma, in the assay with BT-549 breast and in the assay with SK-OV-3 ovarian was more than 100 µM throughout.

As for `O=C(N/N=C\c1ccccc1)Nc1cccc2ccccc12`, the TGI is 39 µM with ACHN renal; more than 100 µM in the assay with SF-268 CNS; 86.5 µM in the assay with PC-3 prostate; more than 100 µM in the assay with KM12 colon; more than 100 µM in the assay on SR leukemia; 77.1 µM with SF-295 CNS. Besides, the TGI was 95.3 µM in the assay with SK-MEL-2 melanoma; more than 100 µM in the assay with MDA-N; more than 100 µM in the assay with MOLT-4 leukemia; 49.1 µM in the assay with M14 melanoma; 98.3 µM with BT-549 breast.
